Results: patent US20260117274A1, “ORTHOGONALLY CROSSLINKED PROTEINS, METHODS OF MAKING, AND USES THEREOF” (The Research Foundation for The State University of New York, priority 2022, published 2026)

Experiments:
[1] = cited from earlier work
[2] = test system: mCherry-TAG-EGFP-HA reporter; assay: Site-specific incorporation into mCherry-TAG-EGFP in HEK293T cells; format: cell-based, Human; conditions: CATKRS/tRNA^Pyl, 0.5 mM CATK-1, fluorescence microscopy and western blot
Excerpt: (§1) To examine whether CATKs are compatible with genetic code expansion in mammalian cells, we first performed a cell viability assay by treating HEK293T cells with CATK-1 and -2 at various concentrations. […] We then cotransfected HEK293T cells with two plasmids: one encodes CATKRS/tRNA^Pyl, and the other encodes the mCherry-TAG-EGFP-HA reporter. The transfected cells were allowed to grow in DMEM supplemented with 10% FBS in the absence or presence of CATK-1.
Site-specific incorporation of CATK-1 into mCherry-TAG-EGFP in mammalian cells. Human Embryonic Kidney 293T (HEK293T) cells were seeded in a 12-well plate and grown in DMEM supplemented with 10% FBS (HyClone™ GE Healthcare Life Sciences) and 10 μg/mL Gentamycin (Gibco) and 2 μg/mL Plasmocin at 37° C., 5% CO2 until ˜90% confluency. The medium was replaced with DMEM, and cells were transfected by using polyethylenimine (Sigma-Aldrich) in Opti-MEM® (Gibco) with two plasmids (one encoding CATKRS/tRNAPyl CUA pair and another encoding mCherry-TAG-EGFP-HA). Six hours post-transfection, the medium was replaced with fresh DMEM with 10% FBS in the presence or absence of 0.5 mM CATK-1. After 24 hours, live cell images were recorded using the Lionheart™ FX automated microscope (BioTek). The cells were lysed by modified RIPA buffer (25 mM Tris HCl, pH 7.4, 150 mM NaCl, 1% NP-40, 1% sodium deoxycholate, 0.1% SDS, 1 mM EDTA, 1 mM PSMF). […]

[3] = test system: HEK293T cells; format: cell-based; conditions: human, 24 h
Excerpt: as §1
Cell viability assay. One hundred μL exponentially growing HEK293T cells were seeded into a 96-well plate at a density of 5×10^5 cells per ml. After 24 h, the cells were treated with varying concentrations of CATK amino acids and then incubated at 37° C. for 24 h. Then, 10 μL CCK-8 solution (Dojindo) was added to each well and the cells were further incubated in 37° C. incubator for 1 h. The plates were read immediately using Biotek microtiter plate reader at 450 nm.

[4] = molecular target: T1, CATKRS (Methanosarcina mazei, UniProt Q8PWY1, C348F/L309A/Y306V/Y384F); assay: Fluorescence-based detection of CATK incorporation into sfGFP-Q204TAG in BL21(DE3) cells; format: cell-based; conditions: 1 mM CATK
T1 construct: expressed in transfected cells; host or cells: E. coli BL21(DE3) transformed with pEVOL-CATKRS
T1 sequence (Q8PWY1 whole entry Y306V/L309A/C348F/Y384F): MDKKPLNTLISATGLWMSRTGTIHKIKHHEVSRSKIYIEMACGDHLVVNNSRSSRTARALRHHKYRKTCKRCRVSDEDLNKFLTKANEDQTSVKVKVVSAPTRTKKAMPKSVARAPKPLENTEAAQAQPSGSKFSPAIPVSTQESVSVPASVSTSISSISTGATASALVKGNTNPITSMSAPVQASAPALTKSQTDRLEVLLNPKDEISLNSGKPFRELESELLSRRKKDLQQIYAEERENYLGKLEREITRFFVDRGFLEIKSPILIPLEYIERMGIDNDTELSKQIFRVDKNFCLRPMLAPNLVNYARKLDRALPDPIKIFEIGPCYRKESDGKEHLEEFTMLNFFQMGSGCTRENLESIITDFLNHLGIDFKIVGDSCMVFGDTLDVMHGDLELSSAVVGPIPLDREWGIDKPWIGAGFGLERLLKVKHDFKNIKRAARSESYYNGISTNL
Excerpt: (§2) To identify pyrrolysine-tRNA synthetase (PylRS) variants that can charge CATKs, we co-transformed BL21(DE3) cells with two plasmids: pEVOL-PylRS encoding PylRS and tRNACUA, and pET-sfGFP-Q204TAG encoding sfGFP bearing an amber codon. We screened a panel of PylRS variants (Table 1), and found one carrying Y306V, L309A, C348F, and Y384F mutations, hereafter referred to as CATKRS, can charge CATK-1, -2, -4, and -7 site-specifically into sfGFP (FIGS. 2b and 10). The incorporations were also confirmed by SDS-PAGE (FIG. 10) and QTOF-LC/MS analyses (FIGS. 2c and 11). Some amount of GSH adducts (˜30%) were detected, presumably due to the high reactivity of CATKs at position-204, a site on sfGFP that is completely solvent exposed.
Site-specific incorporation of CATK into sfGFP. BL21(DE3) cells (50 μL) were co-transformed with the pET-sfGFP-Q204TAG and pEVOL-CATKRS plasmids using the heat shock method. The cells were recovered in 900 μL SOC at 37° C. for 1 hour before plating onto a Luria-Bertani (LB) agar plate containing 100 μg/mL ampicillin and 34 μg/mL chloramphenicol. A single colony from the plate was used to inoculate 6 mL LB broth containing 100 μg/mL ampicillin and 34 μg/mL chloramphenicol. One hundred twenty […] overnight culture was used to inoculate 12 mL LB broth containing the same concentrations of antibiotics. […] The culture was divided into two 6-mL portions. […] The cultures were incubated in an incubator-shaker (37° C., 280 rpm) for 8 hours. […] The supernatant was directly used for fluorescence tests after sonication and centrifugation. […] The mixture was incubated for 2 hours with gentle shaking.

[5] = molecular target: T2, wild-type PylRS (Methanosarcina mazei, UniProt Q8PWY1); assay: Fluorescence-based detection of BeLaK incorporation into sfGFP-Q204TAG; format: cell-based; conditions: 1 mM BeLaK
T2 construct: expressed in transfected cells; host or cells: E. coli BL21(DE3) transformed with pEVOL-PylRS
T2 sequence (Q8PWY1 whole entry): as the sequence (Q8PWY1 whole entry Y306V/L309A/C348F/Y384F) above, with V306Y, A309L, F348C, F384Y counted along it
Excerpt: (§3) To identify an aminoacyl-tRNA synthetase/tRNA pair for charging two phenylalanine derivatives, we screened our collection of pyrrolysine-tRNA synthetases (PylRS) (Table 1) using superfolder green fluorescent protein bearing an amber codon at position-204 (sfGFP-Q204TAG) as a reporter without success (FIG. 37). In parallel, to our delight, we found wild-type PylRS efficiently charges BeLaK into sfGFP-Q204TAG, with the cell lysate showing a 75-fold increase in fluorescence over the background, similar to BocK, a known substrate for wild-type PylRS (FIG. 32b). We also obtained the crystal structure of a protected BeLaK analog S11 (FIG. 38). We note the lactam ring forms an intramolecular H-bond with the lysine ε-N—H (FIG. 32a), mimicking the pyrroline ring in pyrrolysine—the native substrate of PylRS.
Site-specific incorporation of BeLaK into sfGFP. BL21(DE3) cells (50 μL) were co-transformed with the pET-sfGFP-Q204TAG and pEVOL-PylRS plasmids using the heat shock method. The cells were recovered in 900 μL SOC at 37° C. for 1 hour before plating onto a Luria-Bertani (LB) agar plate containing 100 μg/mL ampicillin and 34 μg/mL chloramphenicol. A single colony from the plate was used to inoculate 6 mL LB broth containing 100 μg/mL ampicillin and 34 μg/mL chloramphenicol. […] The supernatant was directly used for fluorescence tests after sonication and centrifugation. […]

[6] = NMR-based stability assay toward glutathione; format: physicochemical; conditions: 10 mM glutathione in PBS for 3 days
Excerpt: We envisioned this acyl transfer-based crosslinking could proceed under neutral conditions if we can identify an appropriate genetically encoded leaving group. To this end, we considered a panel of azoles with pKa values ranging from 19.8 to 8.2, and a varying degree of leaving group effect (FIG. 1a). […] Thus, we designed a series of N-carboxy-4-aryl-1,2,3-triazole-containing lysines (CATK-1-7) as well as three analogous triazolyl lysines, CATK-8, -8a, and -9, for comparison purposes (FIG. 1b). For the synthesis of CATK-1-9, the critical step involved the triphosgene-mediated coupling of aryl- or alkyl-substituted triazoles with a protected lysine. While there was no apparent selectivity for N^2-carbamoylated CATKs, the two regioisomers can be readily separated by flash chromatography. After deprotection, CATK-1-9 were obtained in 7-52% yields. […] Since analogous 1,2,4-triazoles have also been used in designing small-molecule probes for serine hydrolases, we synthesized 1,2,4-triazole-based CATK-9 in four steps with an overall yield of 43%.
In our efforts to identify genetically encoded amino acids that are stable under physiological conditions yet reactive upon photoactivation or through proximity effect, we were intrigued by β-lactam, a venerable chemical moiety found in penicillin and other β-lactam class of antibiotics. […]

[7] = Stability under bacterial culture conditions (intact mass of sfGFP mutants)
Excerpt: as §2
as §3, with “We note the lactam ring forms an intramolecular H-bond with the lysine ε-N—H (FIG. 32a), mimicking the pyrroline ring in pyrrolysine—the native substrate of PylRS.” left out

| Structure (SMILES) | site-specific charging into sfGFP by CATKRS [4] | stability after incubation with glutathione [6] | further results |
| --- | --- | --- | --- |
| c1cn[nH]n1 [2H-1,2,3-trizole] | – | – | pKa [1]: 9.4 |
| N[C@@H](CCCCNC(=O)n1ncc(-c2ccccc2)n1)C(=O)O [CATK-1, N^6-(4-Phenyl-2H-1,2,3-triazole-2-carbonyl)-L-lysine] | can charge | – | incorporation into mCherry-TAG-EGFP-HA [2]: successful CATK-1 incorporation; concentrations at which cytotoxicity was not detected [3]: ≤ 500 µM |
| Cn1cccc1-c1cnn(C(=O)NCCCC[C@H](N)C(=O)O)n1 [CATK-7, N^6-(4-(1-Methyl-1H-pyrrol-2-yl)-2H-1,2,3-triazole-2-carbonyl)-L-lysine] | can charge | – | – |
| N[C@@H](CCCCNC(=O)N1CCC1=O)C(=O)O [BeLaK, N^6-(2-Oxoazetidine-1-carbonyl)-L-lysine] | – | remained intact | increase in fluorescence of cell lysate over the background [5]: 75 fold; stability under bacterial culture conditions [7]: stable under bacterial culture conditions |
| N[C@@H](Cc1ccc(N2CCC2=O)cc1)C(=O)O [BeLaF-2, (S)-2-amino-3-(4-(2-oxoazetidin-1-yl)phenyl)propanoic acid] | – | remained intact | – |
| N[C@@H](CCCCNC(=O)n1ncc(-c2cccs2)n1)C(=O)O [CATK-4, N^6-(4-(Thiophen-2-yl)-2H-1,2,3-triazole-2-carbonyl)-L-lysine] | can charge | – | – |
